Reference: patent US10829798B2, “DNA-linked enzyme-coupled assays” (THE REGENTS OF THE UNIVERSITY OF CALIFORNIA, priority 2014, dated 2020)

How the values were obtained:
OleD [1] = molecular target: T1, OleD (Streptomyces antibioticus, UniProt Q53685, P55A/R82V/R83E/T84P); assay: qPCR DLEnCA, cell-free transcription/translation-derived OleD; format: biochemical
T1 construct: made in house; host or cells: PURExpress In Vitro Protein Synthesis Kit (NEB E6800L), cell-free transcription/translation, linear DNA with T7 promoter
T1 sequence (Q53685 other isoform, or with tags, fused parts or gaps P55A/R82V/R83E/T84P): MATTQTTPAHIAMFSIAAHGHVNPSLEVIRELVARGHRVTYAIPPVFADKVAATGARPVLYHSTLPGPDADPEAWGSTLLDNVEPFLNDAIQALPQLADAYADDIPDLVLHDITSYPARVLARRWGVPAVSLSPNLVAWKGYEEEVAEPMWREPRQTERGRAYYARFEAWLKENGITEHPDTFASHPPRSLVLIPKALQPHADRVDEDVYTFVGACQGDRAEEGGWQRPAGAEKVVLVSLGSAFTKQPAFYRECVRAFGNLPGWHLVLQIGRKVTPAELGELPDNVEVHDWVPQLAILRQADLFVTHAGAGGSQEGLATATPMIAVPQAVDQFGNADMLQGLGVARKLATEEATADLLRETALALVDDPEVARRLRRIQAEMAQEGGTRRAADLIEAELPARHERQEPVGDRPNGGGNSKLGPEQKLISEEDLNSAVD
Method: FIG. 4A-FIG. 4D. qPCR DLEnCA and substrate specificity studies. A. Chemicals used as substrates in subsequent assays: (i) known substrates of OleD; (ii) flavone library; (iii) known substrates of GT05 (UGT72B1 (Q9M156)) and GT06 (UGT89B1 (AT1 G73880)). B. DNA encoding OleD (5 nM) was incubated in a cell-free transcription/translation system for 3 hours at 37° C., followed by the addition of chemical (1 mM) and UDP-Glc (2 μM). After a subsequent incubation of 3 hours, TbGT and probe (0.2 nM) were added. After probe purification and MfeI digestion, probe integrity was identified using qPCR. Percent recovery of probe is reported (n=8; error bars=standard error). C. DNA encoding OleD (5 nM) was incubated for 3 hours at 37° C. in a cell-free transcription/translation system, followed by the addition of flavone (1 mM) and UDP-Glc (2 μM). After a subsequent incubation of 3 hours, TbGT and probe (0.2 nM) were added. After probe purification and MfeI addition, probe integrity was identified using qPCR. Percent recovery of probe is reported (n=8; error bars=standard error). D. DNA encoding OleD, GT05, or GT06 (5 nM) were incubated for 3 hours at 37° C. in a cell-free transcription/translation system, followed by the addition of chemical (1 mM) and UDP-Glc (2 μM). After a subsequent incubation of 3 hours, TbGT and probe (0.2 nM) were added. After probe purification and MfeI digestion, probe integrity was identified using qPCR. Percent recovery of probe is reported as a heat map (n=8) (specific recovery figures and percent error can be found in FIG. 16). *=p<0.05 vs. no chemical control.
PCR tubes were used for most reactions. All incubations were performed at 37° C. Assays were initiated upon the addition of linear DNA (5 nM final concentration) to 4 μl PURExpress Solution A and 3 μl PURExpress Solution B. Samples were incubated at 37° C. for 3 hours prior to addition of UDP-Glucose and chemical (1 mM final concentration) in DMSO. Samples were incubated for an additional 3 hours prior to addition of 1 unit T4 Phage β-glucosyltransferase containing 0.2 nM probe. Samples were incubated an additional 3 hours before DNA was purified using the Zymo DNA Clean and Concentrator Kit. Samples were digested overnight with MfeI prior to analysis. Concentration of intact DNA probe was identified using the iQ SYBR Green Supermix (1708880) with probe DNA as standards. qPCR was carried out on the Bio-Rad iQ5 Multicolor Real-Time PCR Detection System using primers P13 and P14 with the following temperatures; 94° C. 30 seconds followed by 40 cycles of 94° C. 10 seconds and 55° C. for 30 seconds. All results were compared to uncut probe DNA that had been carried through the process as negative controls (considered full recovery of probe).
The second DLEnCA workflow developed involved qPCR as a final readout (qPCR DLEnCA, FIG. 1—qPCR workflow). A linear fragment of DNA was modified to contain 5-hm-cytosines throughout. To determine a threshold for probe protection under conditions amenable to the qPCR DLEnCA workflow, UDP-Glc was titrated into mixtures of the cell-free transcription/translation system containing 5-hm-cytosine-modified DNA probe (0.2 nM probe DNA containing 0.1 μM modified 5-hm-cytosines) and TbGT. After digestion with the restriction enzyme MfeI, the amount of intact DNA probe was determined using qPCR (FIG. 3C). […] A threshold for protection was identified at a 20:1 molar ratio of UDP-Glc to total 5-hm-cytosine in probe DNA; this UDP-Glc amount was used as the starting concentration of UDP-Glc for all qPCR experiments. To test the feasibility of qPCR DLEnCA, OleD was again tested upon the substrate kaempferol (FIG. 3D), using DNA encoding a promoter and OleD as starting material. As expected, when all components of the assay were present, 27% of intact probe DNA was recovered. […]

OleD [2] = molecular target: T1, OleD; assay: FRET DLEnCA, cell-free transcription/translation-derived OleD, fluorescence readout; format: biochemical; conditions: all components present; chemical 1 mM, UDP-Glc 5 μM, FRET probe 250 nM
Method: FIG. 3A-FIG. 3D. DNA-Linked Enzyme-Coupled Assay using cell-free transcription/translation system. A. UDP-Glc was titrated into reactions containing 250 nM FRET probe, TbGT, and a cell-free transcription/translation system. After 3 hours incubation at 37° C., probe was digested with MfeI and resulting digests were analyzed using fluorescent spectrometry (n=6, error bars=standard error). B. DNA encoding OleD (5 nM) was incubated in a cell-free transcription/translation system for 3 hours at 37° C., followed by the addition of UDP-Glucose (5 μM) and kaempferol (1 mM). After a subsequent incubation of 3 hours, TbGT and FRET probe (250 nM) were added. Following MfeI addition, fluorescence formation was monitored using fluorometry. […] Digests were analyzed using qPCR. […]
Assays were performed using 250 nM fluorescent probe (Sequence provided in FIG. 21) in place of the linear probe. Fluorescence was detected using a Tecan Safire^2 using the following settings: excitation wavelength 550 nm, emission wavelength 564 nm, excitation bandwidth 5 nm, emission bandwidth 5 nm, Gain (manual) 120, Number of reads 10, FlashMode High Sensitivity, Integration time 100 μs, lag time 0 μs, Z-position 12000 μm, Temperature 37° C. Development of fluorescence after MfeI addition was monitored over an 8 hour period. […]

## O=c1c(O)c(-c2ccc(O)cc2)oc2cc(O)cc(O)c12 [I, kaempferol]
OleD [1]; OleD DNA 5 nM, chemical 1 mM, UDP-Glc 2 μM, probe 0.2 nM, low recovery = substrate glucosylated
  recovery of intact probe DNA: 27%
OleD [1]; tested against I, X, XI, XII, qPCR DLEnCA, verified with LCMS
  activity of OleD with chemical: showed activity
OleD [2]
  fluorescent reading after MfeI digestion of FRET probe: 50 RFU
